A short description of data set [1]: Tapped density of the granulate (U.S. Pharmacopoeia method). In kind it is physicochemical. Particulars: for tapped density of the granulate: product of the humid melting process of the invention, USP 23 NF 18 method. The source says:
It is in fact known that an inadequately low density (for example, for L(−)-carnitine acid fumarate, a tapped density value below 0.7 g/mL) provides a too light and flaky product which involves serious processability problems. The bulk density is not a reliable parameter for granulated or powdery products, in that even imperceptible perturbations of the test sample can give rise to remarkably different bulk density values. For the characterization of the density of said materials the tapped density is preferably used, which is the limit density obtained after tapping down the material by subjecting a graduated cylinder containing the granulate or powder to strokes, namely by hoisting the cylinder to a fixed height then dropping it for a fixed number of times. The tapped density is usually determined according to the method described in U.S. Pharmacopoeia, National Formulary, Supplement, USP 23, NF 18, Nov. 15, 1997, pages 3976-3977. Said method is herein incorporated by reference. The material is passed through a 1 mm (n. 18 mesh) sieve to crush any agglomerates formed during storage. About 100 g (M) of the test material are placed without tapping down in a 250 mL graduated cylinder. Using a suitable device, the cylinder is hoisted then dropped under the action of its own weight, from a height of 14+2 mm, with a 300 times/minute fall frequency. The volume of the material after a first 500 fall cycle is then measured. […] The tapped density, in g/mL, is expressed by the formula: M/Vf.

The nature of data set [2]: Hygroscopicity and storage behaviour of the granulate. In kind it is physicochemical. Conditions: ground to the desired particle size.

For the molecule `C[N+](C)(C)C[C@H](O)CC(=O)O.C[N+](C)(C)C[C@H](O)CC(=O)O.O=C([O-])C(O)C(O)C(=O)[O-]` [Example 3, L(−)-carnitine Tartrate (2:1)], in data set [1], the “tapped density of the granulate” value was 0.83 g/mL.

With “L(−)-carnitine Acid Fumarate [Example 1]”, in data set [1], the “tapped density of the granulate” value stood at 0.84 g/mL. In data set [2], the “hygroscopicity of the granulate” value is reported as “non-hygroscopic” and the “stability of the granulate in time (packing and/or aggregation)” value is “remained unchanged in time without undergoing packing and/or aggregation”.

Turning to “L(−)-carnitine Acid Fumarate [Example 2]”, in data set [1] (prepared in the presence of a crystallization initiator), the “Physico-chemical characteristics of the final compound” value is “the same as those obtained in the preparation of Example 1”.

Source of the values: patent publication US6372940B1, “Process for the preparation of non-hygroscopic salts of L(−)-carnitine” (Sigma-Tau Industrie Farmaceutiche Riunite S.p.A, priority 1999, dated 2002).
